Values after ≈ are worked out from the molar mass of the structure shown. Where two headings read alike, the source gives them in different places. Square brackets hold non-standard residues; d marks the D form. Peptide text beside a SMILES is read from it. * marks the point of attachment. X2 = c1ccc([P+](CCCCCCCCCCN*)(c2ccccc2)c2ccccc2)cc1; X1 = c1ccc([P+](CCN*)(c2ccccc2)c2ccccc2)cc1 Where only a bound is given, the exact number is not on record here.

Assay [1] relates to bacterial translation (E. coli S30 extract). Description: In vitro translation inhibition of firefly luciferase mRNA, E. coli S30 extract. The class given is biochemical. The note with it: 30 µM. How it is done: Briefly, in vitro-transcribed firefly luciferase mRNA (fluc) was translated using the E. coli S30 Extract System for Linear Templates (Promega, Madison, WI, USA). Reaction mixtures (with a 5 μL total volume) supplemented with 0.1 mM of a mixture of all canonical amino acids, 4 U of RiboLock RNase Inhibitor (Thermo Fisher Scientific, Waltham, MA, USA), and 0.1 mM of D-luciferin (Sigma-Aldrich, Burlington, MA, USA) were pre-incubated at RT for 5 min after the addition of the tested compounds at a final concentration of 30 µM. Then, 50 ng of the mRNA was added to each reaction tube, and the mixtures were immediately subjected to continuous chemiluminescence measurements using the VICTOR X5 Multilabel Plate Reader (PerkinElmer, Waltham, MA, USA) at 37 °C for 30 min. The maximal rates of the firefly luciferase (Fluc) accumulation were calculated using the OriginPro 7.5 software. The values were normalized to a positive control (0.3% DMSO, assigned a value of 100%).

Assay [2] relates to E. coli ΔsbmA. The assay can be described thus: Antibacterial activity on agar plates, ΔsbmA strain versus wild type. The settings on record: Figure 4B. Format: cell-based. How it is done: Antibiotic activity was also evaluated against the following strains: E. coli JW5503 ΔtolC (KanS) ermC, modified with the plasmid pKH80 [59], providing resistance to erythromycin due to the expression of ErmC methyltransferase; E. coli SQ171 ΔtolC transformed with the pAM552 plasmid; E. coli SQ171 ΔtolC modified with the pAM552 plasmid with A2059G substitution in the 23S rRNA; E. coli JW1052 ΔmdtH; E. coli JW0912 ΔompF; and E. coli JW0368 ΔsbmA [57]. The procedure was performed as described previously in [33]. In short, Petri dishes filled with LB solid medium containing a selective antibiotic and 1.5% agar were covered with the tested strains. After that, 1 µL of 10 mM water solutions of Bac(1–10), Bac(1–10, R/Y), Bac(1–10, R/Y)-Cn-TPP, TPP-C10-Bac(1–10, R/Y), and Onc112, LEV (25 μg/mL) in water, and ERY (5 mg/mL and 50 mg/mL) in DMSO were applied onto the agar plates. After overnight incubation at 37 °C, the plates were scanned using the ChemiDoc^TM Imagining System (Bio-Rad Laboratories, Hercules, CA, USA) in three channels (Cy2, Cy3, and Cy5). The obtained images were processed in the Image Lab^TM software (Version 6.0.1, Bio-Rad).

Assay [3] relates to B. subtilis 168. The assay can be described thus: microbe, parasite or virus in culture. The class given is cell-based. The protocol: (§1) The MIC values for Bac(1–10), Bac(1–10, R/Y), Bac(1–10, R/Y)-Cn-TPP, TPP-C10-Bac(1–10, R/Y), and Onc112 were determined via LB broth microdilution, as recommended by CLSI in the Methods for Dilution Antimicrobial Susceptibility Tests for Bacteria that Grow Aerobically, Approved Standard, 9th ed., CLSI document M07-A9, using in-house-prepared panels. The compounds were diluted in a 96-well microtiter plate to final concentrations ranging from 0.1 to 100 µM in a 200 µL aliquot of the bacterial suspension, followed by incubation at 37 °C for 18 h. The cell concentration was estimated according to the absorbance (A600). The measurements were performed with a VICTOR X5 Multilabel Plate Reader (PerkinElmer, Waltham, MA, USA). The following bacterial strains were used: E. coli BW25113, E. coli JW0368 ΔsbmA, B. subtilis 168, and B. subtilis CFR [39].

Assay [4] deals with B. subtilis CFR. Description: microbe, parasite or virus in culture. Format: cell-based. The note with it: CFR, 18 h. How it is done: as §1
Assay [5] deals with E. coli BW25113. The assay can be described thus: microbe, parasite or virus in culture. Format: cell-based. The settings on record: E. coli BW25113, 37 °C, 18 h. The protocol:
as §1

Assay [6] relates to E. coli JW0368 ΔsbmA. The assay can be described thus: microbe, parasite or virus in culture. The class given is cell-based. The note with it: for MIC: E. coli ∆sbmA, 37 °C, 18 h; for difference of MIC values, E. coli ΔsbmA versus wild type: ratio of MIC values of Table 1. How it is done: as §1
For assay [7], the system named is HEK293T. The assay can be described thus: cells. The class given is cell-based, human. The note with it: 72 h. How it is done:
(§2) The cytotoxicity of the substances under study was tested using the MTT (3-(4,5-dimethylthiazol-2-yl)-2,5-diphenyltetrazolium bromide) assay with some modifications. The detailed procedure for the MTT assay is given in the Supplementary Materials (Section S5).
(§3) Two thousand five hundred cells per well for the MCF7, HEK293T, and A549 cell lines or 4000 cells per well for the VA13 cell line were plated in 135 µL of DMEM-F12 media with 10% FBS (both Gibco, Waltham, MA, USA) in a 96-well plate and were incubated in a 5% CO2 incubator for the first 16 h, without treatment. Then 15 µL of media-DMSO solutions of the tested substances were added to the cells (the final DMSO concentrations in the media were 1% or less), and the cells were treated for 72 h with 25 nM–50 µM (eight dilutions) of the tested substances (triplicate each). Serial dilutions of DMSO and doxorubicin were used as controls. The MTT reagent (Paneco LLC, Moscow, Russia) was then added to the cells at a final concentration of 0.5 g/L (10× stock solution in PBS was used) and incubated for 2.5 h at 37 °C in the incubator under an atmosphere of 5%
(§4) CO2. The MTT solution was then discarded, and 140 µL of DMSO (PharmaMed LLC, Krasnodar, Russia) was added. The plates were swayed on a shaker (60 rpm) to dissolve the formazan. The absorbance was measured using the VICTOR X5 Multilabel Plate Reader (PerkinElmer, Wa l th a m, MA, USA) at a wavelength of 565 nm (in order to measure formazan concentration). The resu l ts were used to construct a dose-response graph and to estimate IC50 values.
(§5) Figure S11.The dependencies of viability of cells after treatment by tested compounds.
(§6) (1 picture or pasted object on this page, not shown here)

Assay [8] concerns MCF7. The assay can be described thus: cells. Format: cell-based, human. How it is done: as §2, §3, §4, §5, §6
The test system of assay [9] is VA13. Description: cells. The class given is cell-based, human. How it is done: as §2, §3, §4, §5, §6
[10] abbreviates: HEK293T, MTT, read-out: IC50 (50% inhibition of viability of cells).
The mark [11] stands for this setting: MCF7, 72 h, MTT, read-out: IC50 (50% inhibition of viability of cells).
Setting [12] is: VA13, 72 h, MTT, read-out: IC50 (50% inhibition of viability of cells).

For the molecule `CC[C@H](C)[C@H](NC(=O)[C@H](CCCNC(=N)N)NC(=O)[C@@H](N)CCCNC(=N)N)C(=O)N[C@@H](CCCNC(=N)N)C(=O)N1CCC[C@H]1C(=O)N[C@@H](CCCNC(=N)N)C(=O)N1CCC[C@H]1C(=O)N1CCC[C@H]1C(=O)N[C@@H](Cc1ccc(O)cc1)C(=O)N[C@@H](CC(C)C)C(=O)NCC[P+](c1ccccc1)(c1ccccc1)c1ccccc1` [Compound 3, Bac(1–10, R/Y)-C2-TPP] (H-RRIRPRPPYL-X1; N-terminus assumed), in assay [1], the “inhibition of bacterial translation of firefly luciferase (Fluc) mRNA” value (shortened to “inhibition”) is on record as “almost completely”. In addition, in assay [2], the “antibacterial activity on E. coli ΔsbmA compared with wild-type strain” value is “a decrease in the antibacterial activity”. Further, the MIC in assay [3] (B. subtilis 168, 37 °C, 18 h) is 12.5 µM; in assay [4], 50 µM; in assay [5], 26.3 µM; in assay [6], over 100 µM. The “difference of MIC values, E. coli ΔsbmA versus wild type” value in assay [6] is “four”. The IC50 in [7] (setting [10]) is over 50 µM; in assay [8] (setting [11]) it was over 20 µM; in assay [9] (setting [12]), over 50 µM.

As to `CC[C@H](C)[C@H](NC(=O)[C@H](CCCNC(=N)N)NC(=O)[C@@H](N)CCCNC(=N)N)C(=O)N[C@@H](CCCNC(=N)N)C(=O)N1CCC[C@H]1C(=O)N[C@@H](CCCNC(=N)N)C(=O)N1CCC[C@H]1C(=O)N1CCC[C@H]1C(=O)N[C@@H](Cc1ccc(O)cc1)C(=O)N[C@@H](CC(C)C)C(=O)NCCCCCCCCCC[P+](c1ccccc1)(c1ccccc1)c1ccccc1` [Compound 4, Bac(1–10, R/Y)-C10-TPP] (H-RRIRPRPPYL-X2; N-terminus assumed), the “inhibition” value in assay [1] is “almost completely”. Besides, the MIC turned out to be 1.6 µM in [3] (B. subtilis 168, 37 °C, 18 h); 0.8 µM in assay [4]; 100 µM in [5]; 100 µM in assay [6]. For the same molecule, in assay [6] (MIC values of Table 1), the “comparison of MIC values, E. coli ΔsbmA versus wild type” value was “the same”. Also, the IC50 in assay [7] (setting [10]) is 3.1 ± 0.5 µM; in assay [8] (setting [11]), 10 ± 1 µM; in assay [9] (setting [12]), 12 ± 1 µM.

For the molecule `CC[C@H](C)[C@H](NC(=O)[C@@H](CCCNC(=N)N)NC(=O)[C@H](CCCNC(=N)N)NC(=O)[C@@H]1CCCN1C(=O)[C@@H]1CCCN1C(=O)[C@H](CCCNC(=N)N)NC(=O)[C@@H]1CCCN1C(=O)[C@H](CCCNC(=N)N)NC(=O)[C@@H]1CCCN1C(=O)[C@H](CC(C)C)NC(=O)[C@H](Cc1ccc(O)cc1)NC(=O)[C@@H]1CCCN1C(=O)[C@@H]1CCCN1C(=O)[C@H](CCCCN)NC(=O)[C@H](CC(=O)O)NC(=O)[C@@H](N)C(C)C)C(=O)N[C@@H](Cc1ccc(O)cc1)C(=O)N[C@@H](CC(N)=O)C(=O)N[C@H](CCCNC(=N)N)C(N)=O` [Onc112, reference compound] (H-VDKPPYLPRPRPPR[dR]IYN[dR]-NH2; N-terminus assumed), the “inhibition” value in assay [1] is given as “almost completely”. In assay [2], the “antibacterial activity on E. coli ΔsbmA compared with wild-type strain” value is “a decrease in the antibacterial activity”. The MIC was over 50 µM in [3] (168, 18 h); over 50 µM in assay [4]; 11.6 µM (≈ 27.7 µg/mL) in [5]; over 90 µM in assay [6]. Moreover, the “difference of MIC values, E. coli ΔsbmA versus wild type” value in assay [6] was “approximately eight”. In addition, the concentration for half-maximal inhibition (IC50) in [7] was over 50 µM; in assay [8] (72 h), over 20 µM; in [9] (72 h), over 50 µM.

The values are drawn from PMC10818380, “Triphenylphosphonium Analogs of Short Peptide Related to Bactenecin 7 and Oncocin 112 as Antimicrobial Agents” (Pharmaceutics, 2024).
